Experimental data reported in patent US20250135006A1, “AMPHIPHILIC TLR7/8 ADJUVANTS AND USES THEREOF” (Pfizer Inc., priority 2023, published 2025).

Assays:
[1] = molecular target: T1, human toll like receptor 7 (hTLR7) (Homo sapiens, UniProt Q9NYK1); test: hTLR7 in-vitro functional assay (HEK-Blue hTLR7 SEAP reporter); type: cell-based; conditions: HEK-Blue hTLR7 cells, overnight incubation
T1 construct: host or cells: HEK293 (HEK-Blue hTLR7)
T1 sequence (Q9NYK1 27-1049): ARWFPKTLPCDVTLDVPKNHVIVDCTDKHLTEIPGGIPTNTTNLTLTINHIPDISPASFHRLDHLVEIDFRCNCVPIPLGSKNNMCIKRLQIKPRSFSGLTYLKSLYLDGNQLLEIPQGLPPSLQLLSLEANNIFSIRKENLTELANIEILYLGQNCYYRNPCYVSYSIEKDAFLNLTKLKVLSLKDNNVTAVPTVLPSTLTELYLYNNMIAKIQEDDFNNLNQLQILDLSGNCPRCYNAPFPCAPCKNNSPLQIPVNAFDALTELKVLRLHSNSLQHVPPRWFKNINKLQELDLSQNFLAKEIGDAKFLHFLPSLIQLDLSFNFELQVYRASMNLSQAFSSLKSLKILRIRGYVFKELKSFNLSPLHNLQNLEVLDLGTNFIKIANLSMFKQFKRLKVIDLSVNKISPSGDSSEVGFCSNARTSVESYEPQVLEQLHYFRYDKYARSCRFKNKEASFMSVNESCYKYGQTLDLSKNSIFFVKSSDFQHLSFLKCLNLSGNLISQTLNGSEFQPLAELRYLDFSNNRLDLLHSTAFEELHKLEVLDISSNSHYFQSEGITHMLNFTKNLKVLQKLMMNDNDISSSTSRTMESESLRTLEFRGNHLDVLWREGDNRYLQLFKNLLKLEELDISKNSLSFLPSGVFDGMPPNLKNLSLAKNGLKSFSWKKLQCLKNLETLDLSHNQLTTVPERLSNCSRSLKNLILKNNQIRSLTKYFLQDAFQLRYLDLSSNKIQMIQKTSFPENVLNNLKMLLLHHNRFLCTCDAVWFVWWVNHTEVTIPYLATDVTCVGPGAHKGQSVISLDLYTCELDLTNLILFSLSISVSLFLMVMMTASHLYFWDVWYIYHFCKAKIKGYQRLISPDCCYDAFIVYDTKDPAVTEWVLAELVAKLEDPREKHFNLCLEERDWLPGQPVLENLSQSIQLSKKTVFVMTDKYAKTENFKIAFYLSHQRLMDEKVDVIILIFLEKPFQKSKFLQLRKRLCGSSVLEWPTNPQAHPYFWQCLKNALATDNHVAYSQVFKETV
Text: (§1) To determine the ability of test compounds to activate the human toll like receptor 7 (hTLR7) or human toll like receptor 8 (hTLR8), cell-based reporter systems were utilized. HEK293 cells stably overexpressing either hTLR7 or hTLR8 along with a reporter gene containing an optimized secreted embryonic alkaline phosphatase gene (SEAP), under the control of the IFN-b minimal promoter fused to five NF-kB and AP-1-binding sites, were obtained from Invivogen (HEK-Blue™ hTLR7, cat #Hkb-htlr7; HEK-Blue™ hTLR8, cat #Hkb-htlr8). Stimulation of hTLR7 or hTLR8 in these cells activates NF-kB and AP-1 and induces the production of SEAP which can be quantified using an alkaline phosphatase detection reagent.
(§2) On day one of the assay, compounds were prepared using 11-point half-log serial dilutions from a 10 mM DMSO stock solution and 50 nL was spotted into 384-well plates (PerkinElmer, cat #6007480). Positive and negative controls were also spotted within the assay plate and were used to determine percent effect during the analysis process. After resuspension in DMEM assay media containing FBS heat inactivated (10%), Glutamax (2 mM) and Penicillin/Streptomycin, 10,000 cells/20 ul/well were added to previously prepared compound plates. Plates were incubated overnight (16-20 hrs) at 37° C. in a 5% CO2 environment. Prewetted Microclime lids (Labcyte, LLS-0310) were used to prevent evaporation. On day two of the assay, QUANTI-Blue™ detection reagent was prepared by reconstituting QUANTI-Blue™ powder (InvivoGen, Rep-qb1) with 100 ml of sterile water and allowed to equilibrate to 37° C. for 15 minutes. 20 ul of QUANTI-Blue™ detection reagent was added to each well and plates were incubated at room temperature for 180 min. At the end of the incubation, plates were read on an Envision (Perkin Elmer) plate reader capturing absorbance at 650 nm.
(§3) Using Positive (tool compound) and Negative (DMSO) controls, the percent (%) effect was calculated for each sample using the following equation: […]
(§4) The % effect at each concentration of compound was calculated utilizing the ABase software suite (IBDS) and was relative to the amount of SEAP produced in the positive and negative control wells contained within each assay plate. The concentrations and % effect values for test compounds were fit using a 4-parameter logistic model in ABase and the concentration of compound that produced 50% response (EC50) was calculated.

[2] = molecular target: T2, human toll like receptor 8 (hTLR8) (Homo sapiens, UniProt Q9NR97); test: hTLR8 in-vitro functional assay (HEK-Blue hTLR8 SEAP reporter); type: cell-based; conditions: HEK-Blue hTLR8 cells, overnight incubation
T2 construct: host or cells: HEK293 (HEK-Blue hTLR8)
T2 sequence (Q9NR97 27-1041): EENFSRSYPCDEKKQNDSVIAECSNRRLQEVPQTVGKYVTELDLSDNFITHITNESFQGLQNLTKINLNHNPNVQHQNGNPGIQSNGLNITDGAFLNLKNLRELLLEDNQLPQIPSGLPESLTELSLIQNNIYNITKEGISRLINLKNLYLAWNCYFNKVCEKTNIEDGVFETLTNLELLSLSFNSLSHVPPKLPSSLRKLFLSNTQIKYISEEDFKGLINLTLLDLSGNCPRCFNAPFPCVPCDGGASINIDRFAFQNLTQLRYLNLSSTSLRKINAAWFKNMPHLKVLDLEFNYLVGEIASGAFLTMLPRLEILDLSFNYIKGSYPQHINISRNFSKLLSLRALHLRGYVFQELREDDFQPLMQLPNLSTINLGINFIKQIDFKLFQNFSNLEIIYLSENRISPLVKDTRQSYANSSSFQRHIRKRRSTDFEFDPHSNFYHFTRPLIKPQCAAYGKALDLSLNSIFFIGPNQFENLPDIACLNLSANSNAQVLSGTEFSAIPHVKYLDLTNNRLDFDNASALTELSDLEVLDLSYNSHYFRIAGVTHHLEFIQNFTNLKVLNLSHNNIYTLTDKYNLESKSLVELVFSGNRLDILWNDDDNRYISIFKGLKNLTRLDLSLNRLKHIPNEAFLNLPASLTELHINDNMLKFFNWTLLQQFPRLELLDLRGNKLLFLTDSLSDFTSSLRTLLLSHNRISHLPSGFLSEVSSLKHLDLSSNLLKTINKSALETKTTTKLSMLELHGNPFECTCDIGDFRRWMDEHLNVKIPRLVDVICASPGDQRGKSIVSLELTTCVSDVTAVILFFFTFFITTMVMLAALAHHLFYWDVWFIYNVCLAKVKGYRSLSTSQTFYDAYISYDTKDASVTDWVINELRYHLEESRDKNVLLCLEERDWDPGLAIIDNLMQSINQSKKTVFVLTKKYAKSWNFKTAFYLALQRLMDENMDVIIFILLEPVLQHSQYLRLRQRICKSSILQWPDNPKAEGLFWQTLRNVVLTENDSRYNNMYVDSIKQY
Text: as §1, §2, §3, §4

| SMILES | EC50 [1] [µM] | EC50 [2] [µM] |
| --- | --- | --- |
| CCCCc1nc2c(N)nc3cc(CCCN4CCN(CCCOCCOCCOCCOCCOCCOCCOCCOCCOCCOCCOCCOCCOCCOCCOCCOCCOCCOCCOCCOCCOCCOCCOCCOCCNC(=O)O[C@H]5CC[C@@]6(C)C(=CC[C@H]7[C@@H]8CC[C@H]([C@H](C)CCCC(C)C)[C@@]8(C)CC[C@@H]76)C5)CC4)ccc3c2n1CC(C)(CO)CO [Compound 16, (20R)-cholest-5-en-3beta-yl {75-[4-(3-{4-amino-2-butyl-1-[3-hydroxy-2-(hydroxymethyl)-2-methylpropyl]-1H-imidazo[4,5-c]quinolin-7-yl}propyl)piperazin-1-yl]-3,6,9,12,15,18,21,24,27,30,33,36,39,42,45,48,51,54,57,60,63,66,69,72-tetracosaoxapentaheptacontan-1-yl}carbamate] | 0.278 | > 25 |
| CCCCc1nc2c(N)nc3cc(CCCN4CCN(C(=O)CCOCCOCCOCCOCCOCCOCCOCCOCCOCCOCCOCCOCCOCCOCCOCCOCCOCCOCCOCCOCCOCCOCCOCCOCCOCCOCCOCCOCCOCCOCCOCCOCCOCCOCCOCCOCCNC(=O)CCOCCOCCOCCOCCNC(=O)CCCOc5c(C)c(C)c6c(c5C)CC[C@@](C)(CCC[C@H](C)CCC[C@H](C)CCCC(C)C)O6)CC4)ccc3c2n1CC(C)(CO)CO [Compound 24] | 0.134 | 2.38 |
| CCCCc1nc2c(N)nc3cc(CCCN4CCN(CCCOCCOCCOCCOCCOCCOCCOCCOCCOCCOCCOCCOCCOCCOCCOCCOCCOCCOCCOCCOCCNC(=O)O[C@H]5CC[C@@]6(C)C(=CC[C@H]7[C@@H]8CC[C@H]([C@H](C)CCCC(C)C)[C@@]8(C)CC[C@@H]76)C5)CC4)ccc3c2n1CC(C)(CO)CO [Compound 7, (3beta)-cholest-5-en-3-yl {63-[4-(3-{4-amino-2-butyl-1-[3-hydroxy-2-(hydroxymethyl)-2-methylpropyl]-1H-imidazo[4,5-c]quinolin-7-yl}propyl)piperazin-1-yl]-3,6,9,12,15,18,21,24,27,30,33,36,39,42,45,48,51,54,57,60-icosaoxatrihexacont-1-yl}carbamate] | 0.14 | 14.4 |
| CCCCc1nc2c(N)nc3cc(CCCN4CCN(CCCOCCNC(=O)O[C@H]5CC[C@@]6(C)C(=CC[C@H]7[C@@H]8CC[C@H]([C@H](C)CCCC(C)C)[C@@]8(C)CC[C@@H]76)C5)CC4)ccc3c2n1CC(C)(CO)CO [Compound 10, (3beta,20R)-cholest-5-en-3-yl (2-{3-[4-(3-{4-amino-2-butyl-1-[3-hydroxy-2-(hydroxymethyl)-2-methylpropyl]-1H-imidazo[4,5-c]quinolin-7-yl}propyl)piperazin-1-yl]propoxy}ethyl)carbamate] | 0.186 | 9.91 |

The remaining compounds from weak to strong by EC50 [1], led by results:

| EC50 [1] [µM] | EC50 [2] [µM] | SMILES |
| --- | --- | --- |
| 0.276 | 17.6 | CCCCc1nc2c(N)nc3cc(CCCN4CCN(CCCOCCOCCOCCOCCNC(=O)CCOCCOCCOCCOCCNC(=O)O[C@H]5CC[C@@]6(C)C(=CC[C@H]7[C@@H]8CC[C@H]([C@H](C)CCCC(C)C)[C@@]8(C)CC[C@@H]76)C5)CC4)ccc3c2n1CC(C)(CO)CO [Compound 15, (20R)-cholest-5-en-3beta-yl {31-[4-(3-{4-amino-2-butyl-1-[3-hydroxy-2-(hydroxymethyl)-2-methylpropyl]-1H-imidazo[4,5-c]quinolin-7-yl}propyl)piperazin-1-yl]-15-oxo-3,6,9,12,19,22,25,28-octaoxa-16-azahentriacontan-1-yl}carbamate] |
| 0.15 | 0.731 | CCCCc1nc2c(N)nc3cc(CCCN4CCN(C(=O)CCOCCOCCOCCOCCOCCOCCOCCOCCOCCOCCOCCOCCOCCOCCOCCOCCOCCOCCOCCOCCOCCOCCOCCOCCNC(=O)CCOCCOCCOCCOCCOCCOCCOCCOCCOCCOCCOCCOCCOCCOCCOCCOCCOCCOCCOCCOCCOCCOCCOCCOCCNC(=O)O[C@H]5CC[C@@]6(C)C(=CC[C@H]7[C@@H]8CC[C@H]([C@H](C)CCCC(C)C)[C@@]8(C)CC[C@@H]76)C5)CC4)ccc3c2n1CC(C)(CO)CO [Compound 8, (3beta,20R)-cholest-5-en-3-yl {151-[4-(3-{4-amino-2-butyl-1-[3-hydroxy-2-(hydroxymethyl)-2-methylpropyl]-1H-imidazo[4,5-c]quinolin-7-yl}propyl)piperazin-1-yl]-75,151-dioxo-3,6,9,12,15,18,21,24,27,30,33,36,39,42,45,48,51,54,57,60,63,66,69,72,79,82,85,88,91,94,97,100,103,106,109,112,115,118,121,124,127,130,133,136,139,142,145,148-octatetracontaoxa-76-azahenpentacontahect-1-yl}carbamate] |
| 0.06 | 1.75 | CCOCc1nc2c(N)nc3cc(CCCN4CCN(C(=O)CCOCCOCCOCCOCCOCCOCCOCCOCCOCCOCCOCCOCCOCCOCCOCCOCCOCCOCCOCCOCCOCCOCCOCCOCCOCCOCCOCCOCCOCCOCCOCCOCCOCCOCCOCCOCCNC(=O)CCOCCOCCOCCOCCNC(=O)O[C@H]5CC[C@@]6(C)C(=CC[C@H]7[C@@H]8CC[C@H]([C@H](C)CCCC(C)C)[C@@]8(C)CC[C@@H]76)C5)CC4)ccc3c2n1CC(C)(CO)CO [Compound 4, (3beta)-cholest-5-en-3-yl {127-[4-(3-{4-amino-2-(ethoxymethyl)-1-[3-hydroxy-2-(hydroxymethyl)-2-methylpropyl]-1H-imidazo[4,5-c]quinolin-7-yl}propyl)piperazin-1-yl]-15,127-dioxo-3,6,9,12,19,22,25,28,31,34,37,40,43,46,49,52,55,58,61,64,67,70,73,76,79,82,85,88,91,94,97,100,103,106,109,112,115,118,121,124-tetracontaoxa-16-azaheptacosahect-1-yl}carbamate] |
